Usually ED50 stands for the dose at which the effect has come halfway, by size or by number of responders. High values mean a need for a large dose, low ones an effect at a small dose.

Structures are written as SMILES.

The subject of the first experiment is Mus musculus. As to the kind of experiment: Protective effect against mortality induced by hypobaric hypoxia in mice by intraperitoneal (i.p.) administration. The conditions noted are these: ip. Type of experiment: functional.
`N=c1sc2cc(OC(F)(F)F)ccc2n1CCN1CCN(c2ccccc2)CC1`: it took a dose of 5.5 mg/kg to reach the 50% effect level (ED50).
Same read-out and setting: then `N=c1sc2cc(OC(F)(F)F)ccc2n1CCCN1CCN(c2ccccc2)CC1`, with over 10 mg/kg.
Still for that read-out and setting: to `C[S+]([O-])CCn1c(=N)sc2cc(OC(F)(F)F)ccc21` (configuration not stated) belongs 5.5 mg/kg.
For `CSCCn1c(=N)sc2cc(OC(F)(F)F)ccc21`, it took a dose of 14 mg/kg to reach the 50% effect level (ED50).
The same measure, in the same setting: then `CN(C)CCn1c(=N)sc2cc(OC(F)(F)F)ccc21`, with 4 mg/kg; and `N=c1sc2cc(OC(F)(F)F)ccc2n1CCN1CCCCC1`, with under 5 mg/kg; and `Nc1nc2ccc(OC(F)(F)F)cc2s1` [RILUZOLE], with 4 mg/kg.

The next experiment concerns Rattus norvegicus. As to the kind of experiment: Tested for the protection against glutamic acid-evoked convulsions in rats by intraperitoneal administration. In kind it is functional. The note with it: ip.
In turn, `N=c1sc2cc(OC(F)(F)F)ccc2n1CCN1CCN(c2ccccc2)CC1` had an ED50 of 3.5 mg/kg.
As to `Cn1c(=N)sc2cc(OC(F)(F)F)ccc21`, the ED50 amounted to 5 mg/kg.
Still for that read-out and setting: then `CCSCCn1/c(=N/C)sc2cc(OC(F)(F)F)ccc21`, with 3.7 mg/kg; and `CN(CCc1ccccc1)CCn1c(=N)sc2cc(OC(F)(F)F)ccc21`, with 5 mg/kg.
In turn, `N=c1sc2cc(OC(F)(F)F)ccc2n1CCO` displayed an ED50 of 8 mg/kg.
Same read-out and setting: then `N=c1sc2cc(OC(F)(F)F)ccc2n1CCc1ccccc1`, with over 10 mg/kg; and `Nc1nc2ccc([N+](=O)[O-])cc2s1`, with over 10 mg/kg; and `C[S+]([O-])CCCn1c(=N)sc2cc(OC(F)(F)F)ccc21` (configuration not stated), with 2.3 mg/kg.
In the case of `N=c1sc2cc(OC(F)(F)F)ccc2n1Cc1ccccc1`, the ED50 was over 10 mg/kg.
The same measure, in the same setting: to `N=c1sc2cc(OC(F)(F)F)ccc2n1CCCN1CCN(c2ccccc2)CC1` belongs 10 mg/kg; to `Nc1nc2cccc(OC(F)(F)F)c2s1`, over 10 mg/kg; to `N#CCn1c(=N)sc2cc(OC(F)(F)F)ccc21`, 3.5 mg/kg.
Still for that read-out and setting: to `CCc1ccc2nc(N)sc2c1` belongs 7 mg/kg; to `Nc1nc2ccc(OC(F)(F)C(F)F)cc2s1`, 8.5 mg/kg.
Still for that read-out and setting: to `CCCSCCn1c(=N)sc2cc(OC(F)(F)F)ccc21` belongs 2.4 mg/kg; to `N=c1sc2cc(OC(F)(F)F)ccc2n1CC[S+]([O-])c1ccccc1` (configuration not stated), 4.2 mg/kg.
For the compound `Nc1nc2ccc(OCC(F)(F)C(F)(F)F)cc2s1`, the median effective dose (ED50) came to 7.5 mg/kg.
Still for that read-out and setting: then `CCCCc1ccc2c(c1)sc(=N)n2CC[S+]([O-])CC` (configuration not stated), with over 10 mg/kg; and `CCC(C)(C)c1ccc2nc(N)sc2c1`, with over 10 mg/kg; and `CN(CCn1c(=N)sc2cc(OC(F)(F)F)ccc21)Cc1ccccc1`, with 7 mg/kg.
Still for that read-out and setting: then `Nc1ccc2nc(N)sc2c1`, with over 10 mg/kg; and `CS(=O)(=O)CCn1c(=N)sc2cc(OC(F)(F)F)ccc21`, with 1.8 mg/kg.
The compound `CN(C)S(=O)(=O)CCn1c(=N)sc2cc(OC(F)(F)F)ccc21` registered an ED50 of over 10 mg/kg.
The same measure, in the same setting: then `N=c1sc2cc(OC(F)(F)F)ccc2n1CCSc1ccccc1`, with 4.5 mg/kg.
The same measure, in the same setting: to `C[S+]([O-])Cn1c(=N)sc2cc(OC(F)(F)F)ccc21` (configuration not stated) belongs 2.3 mg/kg.
On the same count and under the same terms, to `N#Cc1ccc2nc(N)sc2c1` belongs over 10 mg/kg; to `N=c1sc2cc(OC(F)(F)F)ccc2n1CCS`, 2 mg/kg.
The compound `C[S+]([O-])CCn1c(=N)sc2cc(OC(F)(F)F)ccc21` (configuration not stated) gave an ED50 of 1.1 mg/kg.
Still for that read-out and setting: to `CC(C)(C)Oc1ccc2nc(N)sc2c1` belongs over 10 mg/kg; to `CCSCCn1/c(=N/O)sc2cc(OC(F)(F)F)ccc21`, over 10 mg/kg; to `CS(=O)(=O)c1ccc2nc(N)sc2c1`, over 10 mg/kg.
For the compound `CS(=O)(=O)CCCn1c(=N)sc2cc(OC(F)(F)F)ccc21`, the ED50 is 5 mg/kg.
Still for that read-out and setting: then `N=c1sc2cc(OC(F)(F)F)ccc2n1CCS(N)(=O)=O`, with 6 mg/kg; and `Nc1nc2c(OC(F)(F)F)cccc2s1`, with over 10 mg/kg; and `Nc1nc2ccc(C(F)(F)F)cc2s1`, with 2.5 mg/kg.
On the same count and under the same terms, then `N=c1sc2cc(OC(F)(F)F)ccc2n1CC(=O)O`, with over 10 mg/kg; and `COC(=O)Cn1c(=N)sc2cc(OC(F)(F)F)ccc21`, with over 10 mg/kg; and `Nc1nc2cc(OC(F)(F)F)ccc2s1`, with over 10 mg/kg.
The same measure, in the same setting: to `CSCCn1c(=N)sc2cc(OC(F)(F)F)ccc21` belongs 1 mg/kg; to `N=c1sc2cc(OC(F)(F)F)ccc2n1CC(N)=O`, 7 mg/kg; to `CN(C)CCn1c(=N)sc2cc(OC(F)(F)F)ccc21`, 2.3 mg/kg.
Compound `CCCc1ccc2nc(N)sc2c1` displayed a median effective dose (ED50) of 6 mg/kg.
The same measure, in the same setting: to `CSCCn1/c(=N/C(C)=O)sc2cc(OC(F)(F)F)ccc21` belongs over 10 mg/kg; to `CCCCCc1ccc2nc(N)sc2c1`, 7.5 mg/kg.
On the same count and under the same terms, to `CCCCc1ccc2nc(N)sc2c1` belongs 4 mg/kg.
The same measure, in the same setting: then `CC[S+]([O-])CCn1c(=N)sc2cc(OC(F)(F)F)ccc21` (configuration not stated), with 1.2 mg/kg; and `CSCCCn1c(=N)sc2cc(OC(F)(F)F)ccc21`, with 4.2 mg/kg; and `CNCCn1c(=N)sc2cc(OC(F)(F)F)ccc21`, with over 10 mg/kg.
With `CC(C)(C)Cc1ccc2nc(N)sc2c1`, the median effective dose (ED50) was over 10 mg/kg.
On the same count and under the same terms, to `Nc1nc2ccc(C3CCCCC3)cc2s1` belongs over 10 mg/kg; to `N=c1sc2cc(OC(F)(F)F)ccc2n1CCN1CCCCC1`, 2 mg/kg; to `N=c1sc2cc(OC(F)(F)F)ccc2n1CCN1CC=C(c2ccccc2)CC1`, 2.2 mg/kg.
The same measure, in the same setting: to `CCSCCn1c(=N)sc2cc(OC(F)(F)F)ccc21` belongs 2.2 mg/kg; to `CCCCn1c(=N)sc2cc(OC(F)(F)F)ccc21`, 10 mg/kg; to `Nc1nc2ccc(SC(F)(F)F)cc2s1`, 8 mg/kg.
On the same count and under the same terms, to `Nc1nc2ccc(OC(F)(F)C(F)(F)F)cc2s1` belongs 2.5 mg/kg.
Take `Nc1nc2ccc(I)cc2s1`: the ED50 is over 10 mg/kg.
Same read-out and setting: to `CCS(=O)(=O)CCn1c(=N)sc2cc(OC(F)(F)C(F)(F)F)ccc21` belongs 2.6 mg/kg; to `CCCn1c(=N)sc2cc(OC(F)(F)F)ccc21`, 4.5 mg/kg; to `CCn1c(=N)sc2cc(OC(F)(F)F)ccc21`, 5 mg/kg.
Still for that read-out and setting: to `CC[S+]([O-])CCn1c(=N)sc2cc(C(F)(F)F)ccc21` (configuration not stated) belongs 1.7 mg/kg; to `CCOC(=O)c1ccc2nc(N)sc2c1`, over 10 mg/kg.
The same measure, in the same setting: to `Nc1nc2ccc(CC(F)(F)F)cc2s1` belongs 8 mg/kg; to `C=CCn1c(=N)sc2cc(OC(F)(F)F)ccc21`, 7 mg/kg; to `Nc1nc2ccc(C(F)(F)C(F)(F)F)cc2s1`, 2.5 mg/kg.
In turn, `C[Si](C)(C)c1ccc2nc(N)sc2c1` came in with an ED50 of 5 mg/kg.
The same measure, in the same setting: to `CC[S+]([O-])CCn1c(=N)sc2cc(C(C)(C)C)ccc21` (configuration not stated) belongs over 10 mg/kg.
The same measure, in the same setting: then `CCSCCn1/c(=N/OC)sc2cc(OC(F)(F)F)ccc21`, with over 10 mg/kg.
Same read-out and setting: then `N=c1sc2cc(OC(F)(F)F)ccc2n1CCN1CCC(c2ccccc2)CC1`, with 3 mg/kg; and `CN(C)CCn1c(=N)sc2cc(C(C)(C)C)ccc21`, with over 10 mg/kg.
In the case of `CNS(=O)(=O)CCn1c(=N)sc2cc(OC(F)(F)F)ccc21`, the median effective dose (ED50) was 4 mg/kg.
Same read-out and setting: to `Nc1nc2ccc(-c3ccccc3)cc2s1` belongs over 10 mg/kg.
Same read-out and setting: then `CSCCn1c(=O)sc2cc(OC(F)(F)F)ccc21`, with over 10 mg/kg.
On the same count and under the same terms, to `CC(C)c1ccc2nc(N)sc2c1` belongs over 10 mg/kg; to `CSCn1c(=N)sc2cc(OC(F)(F)F)ccc21`, 3 mg/kg.
Turning to `Nc1nc2ccc(OCC(F)(F)F)cc2s1`, the ED50 was 6.5 mg/kg.
On the same count and under the same terms, to `CCCCCCc1ccc2nc(N)sc2c1` belongs 7 mg/kg; to `Nc1nc2ccc(OC(F)F)cc2s1`, 7.5 mg/kg.
Still for that read-out and setting: then `C#CCn1c(=N)sc2cc(OC(F)(F)F)ccc21`, with 4 mg/kg.
Still for that read-out and setting: then `Nc1nc2ccc(C(=O)C(F)(F)F)cc2s1`, with over 10 mg/kg; and `CCCCCCCc1ccc2nc(N)sc2c1`, with over 10 mg/kg.
In the case of `CCN(CC)C(=O)Cn1c(=N)sc2cc(OC(F)(F)F)ccc21`, the ED50 was 9 mg/kg.
The same measure, in the same setting: to `N=c1sc2cc(OC(F)(F)F)ccc2n1CCS(=O)(=O)O` belongs over 10 mg/kg.
The same measure, in the same setting: to `COc1ccc2nc(N)sc2c1` belongs over 10 mg/kg; to `CN(C)CCn1c(=N)sc2ccccc21`, over 10 mg/kg.
Same read-out and setting: to `CC(C)(C)c1ccc2nc(N)sc2c1` belongs 4 mg/kg; to `Nc1nc2ccc(Br)cc2s1`, over 10 mg/kg; to `CC/N=c1\sc2cc(OC(F)(F)F)ccc2n1CCSC`, 8.5 mg/kg.
For `CN(C)CCCn1c(=N)sc2cc(OC(F)(F)F)ccc21`, the ED50 came out at 9 mg/kg.
On the same count and under the same terms, then `CCS(=O)(=O)CCn1c(=N)sc2cc(C(F)(F)C(F)(F)F)ccc21`, with 2.1 mg/kg.
Still for that read-out and setting: to `C[C@]12N[C@H](Cc3ccccc31)c1ccccc12` (racemic) [DIZOCILPINE] belongs 2.2 mg/kg; to `Nc1nc2ccc(OC(F)(F)F)cc2s1` [RILUZOLE], 3.2 mg/kg.

For another experiment, the system named is Mus musculus. The experiment in a line: Protective effect against mortality induced by hypobaric hypoxia in mice by intraperitoneal (i.p.) administration; Range 2.5-10. Type of experiment: functional. The conditions noted are these: ip.
Compound `CS(=O)(=O)CCn1c(=N)sc2cc(OC(F)(F)F)ccc21` had an ED50 of 2.5 mg/kg.
`N=c1sc2cc(OC(F)(F)F)ccc2n1CCN1CC=C(c2ccccc2)CC1` displayed an ED50 of 2.5 mg/kg.
On the same count and under the same terms, then `N=c1sc2cc(OC(F)(F)F)ccc2n1CCN1CCC(c2ccccc2)CC1`, with 2.5 mg/kg.
